Measured values as given in ChEMBL document CHEMBL1201862, “PubChem BioAssay data set” (2004).
Calls of active or inactive are those of the source.

Tests used:
Format in all cases: functional
[1] = molecular target: T1, Caspase-3 (Homo sapiens, UniProt P42574); assay: inhibition of recombinant caspase-3 activity – biochemical, luminescence, set 2, selectivity assay for SENP protease inhibitor project, SAR follow-up (AID 588599)
T1 sequence (P42574 whole entry): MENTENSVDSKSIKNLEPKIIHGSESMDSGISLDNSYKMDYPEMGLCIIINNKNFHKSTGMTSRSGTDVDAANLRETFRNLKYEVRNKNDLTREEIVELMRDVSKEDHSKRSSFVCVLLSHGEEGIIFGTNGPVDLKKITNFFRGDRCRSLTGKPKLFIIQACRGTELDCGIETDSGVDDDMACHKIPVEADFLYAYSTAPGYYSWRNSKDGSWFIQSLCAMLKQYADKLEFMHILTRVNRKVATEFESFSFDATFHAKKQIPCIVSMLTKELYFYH

[2] = molecular target: T2, Sentrin-specific protease 8 (Homo sapiens, UniProt Q96LD8); assay: inhibition of sentrin protease 8 – biochemical, luminescence, set 2, SAR follow-up (AID 588601)
T2 sequence (Q96LD8 whole entry): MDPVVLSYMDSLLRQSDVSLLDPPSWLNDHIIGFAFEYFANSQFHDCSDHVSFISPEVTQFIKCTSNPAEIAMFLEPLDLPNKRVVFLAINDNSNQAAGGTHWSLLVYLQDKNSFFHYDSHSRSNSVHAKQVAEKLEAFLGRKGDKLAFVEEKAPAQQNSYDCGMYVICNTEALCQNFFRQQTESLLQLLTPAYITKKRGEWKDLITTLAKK

[3] = molecular target: T3, Sentrin-specific protease 7 (Homo sapiens, UniProt Q9BQF6); assay: inhibition of human SENP7 cleavage activity – biochemical, luminescence, set 2, SAR follow-up (AID 588600)
T3 sequence (Q9BQF6 whole entry): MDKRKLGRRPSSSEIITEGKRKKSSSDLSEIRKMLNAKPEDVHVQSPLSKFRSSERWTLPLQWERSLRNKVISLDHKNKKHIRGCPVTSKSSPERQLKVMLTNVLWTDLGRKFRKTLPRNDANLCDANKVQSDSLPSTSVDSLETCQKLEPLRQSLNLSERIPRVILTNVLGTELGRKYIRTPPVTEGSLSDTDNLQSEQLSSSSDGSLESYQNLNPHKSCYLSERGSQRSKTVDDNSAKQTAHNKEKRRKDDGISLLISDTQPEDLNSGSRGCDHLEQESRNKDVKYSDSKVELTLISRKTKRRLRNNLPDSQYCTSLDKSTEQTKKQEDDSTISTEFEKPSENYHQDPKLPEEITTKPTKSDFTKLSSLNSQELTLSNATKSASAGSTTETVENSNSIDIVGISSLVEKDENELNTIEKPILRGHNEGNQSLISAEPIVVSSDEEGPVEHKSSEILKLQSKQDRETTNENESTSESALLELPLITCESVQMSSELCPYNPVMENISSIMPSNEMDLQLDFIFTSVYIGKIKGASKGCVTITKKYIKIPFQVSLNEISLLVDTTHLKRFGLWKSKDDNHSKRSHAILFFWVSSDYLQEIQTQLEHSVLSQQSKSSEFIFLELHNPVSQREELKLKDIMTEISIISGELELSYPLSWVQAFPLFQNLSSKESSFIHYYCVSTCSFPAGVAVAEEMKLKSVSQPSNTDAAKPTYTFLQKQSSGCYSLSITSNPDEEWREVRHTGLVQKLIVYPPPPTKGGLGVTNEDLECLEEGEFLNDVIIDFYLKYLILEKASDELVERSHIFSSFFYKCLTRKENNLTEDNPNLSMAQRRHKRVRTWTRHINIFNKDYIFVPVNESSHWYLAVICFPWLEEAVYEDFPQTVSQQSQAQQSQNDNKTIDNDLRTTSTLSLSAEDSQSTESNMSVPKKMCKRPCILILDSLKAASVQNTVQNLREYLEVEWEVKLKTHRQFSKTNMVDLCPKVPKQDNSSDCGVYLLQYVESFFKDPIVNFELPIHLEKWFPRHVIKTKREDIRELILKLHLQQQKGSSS

[4] = molecular target: T4, Sentrin-specific protease 6 (Homo sapiens, UniProt Q9GZR1); assay: inhibition of human SENP6 catalytic domain – biochemical, luminescence, set 2, SAR follow-up (AID 588598)
T4 sequence (Q9GZR1 whole entry): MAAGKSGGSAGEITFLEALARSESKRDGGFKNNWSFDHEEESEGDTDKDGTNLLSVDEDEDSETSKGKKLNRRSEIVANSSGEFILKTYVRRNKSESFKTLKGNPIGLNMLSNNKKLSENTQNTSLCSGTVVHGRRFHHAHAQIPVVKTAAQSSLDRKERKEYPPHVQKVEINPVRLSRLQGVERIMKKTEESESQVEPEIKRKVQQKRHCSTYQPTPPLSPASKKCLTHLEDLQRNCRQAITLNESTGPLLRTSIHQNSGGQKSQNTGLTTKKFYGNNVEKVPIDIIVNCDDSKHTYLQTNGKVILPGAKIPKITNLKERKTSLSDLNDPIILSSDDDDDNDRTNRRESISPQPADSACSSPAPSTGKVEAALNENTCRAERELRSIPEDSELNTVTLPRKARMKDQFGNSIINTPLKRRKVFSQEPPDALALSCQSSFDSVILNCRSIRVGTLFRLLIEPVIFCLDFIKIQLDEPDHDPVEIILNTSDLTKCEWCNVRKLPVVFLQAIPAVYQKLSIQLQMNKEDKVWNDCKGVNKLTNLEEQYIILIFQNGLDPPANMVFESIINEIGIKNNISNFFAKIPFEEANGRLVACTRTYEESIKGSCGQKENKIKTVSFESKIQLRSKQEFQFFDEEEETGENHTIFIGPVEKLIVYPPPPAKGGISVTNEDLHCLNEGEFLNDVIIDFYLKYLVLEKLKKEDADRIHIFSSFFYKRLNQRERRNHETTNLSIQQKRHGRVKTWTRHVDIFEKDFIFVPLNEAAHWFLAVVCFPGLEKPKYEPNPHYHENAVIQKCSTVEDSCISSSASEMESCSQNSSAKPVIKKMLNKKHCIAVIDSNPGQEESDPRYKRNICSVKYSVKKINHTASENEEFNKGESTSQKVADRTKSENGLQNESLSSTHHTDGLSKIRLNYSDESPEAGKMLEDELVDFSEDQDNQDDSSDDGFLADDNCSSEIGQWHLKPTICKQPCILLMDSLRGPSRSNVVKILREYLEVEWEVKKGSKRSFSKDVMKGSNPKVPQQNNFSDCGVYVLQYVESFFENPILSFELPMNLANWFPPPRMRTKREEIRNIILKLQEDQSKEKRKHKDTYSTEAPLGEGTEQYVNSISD

[5] = test system: Vero; assay: viability of Vero cells under compound – cytotoxicity control for flavivirus capping enzyme inhibitors (AID 588742); conditions: Chlorocebus sabaeus
[6] = molecular target: T5, Rac GTPase-activating protein 1 (Homo sapiens, UniProt Q9H0H5); assay: blockers of MgcRacGAP-driven Rac1 GTP hydrolysis – biochemical, ADP Hunter fluorescence, primary and confirmatory, confirmation (AID 624330)
T5 sequence (Q9H0H5 whole entry): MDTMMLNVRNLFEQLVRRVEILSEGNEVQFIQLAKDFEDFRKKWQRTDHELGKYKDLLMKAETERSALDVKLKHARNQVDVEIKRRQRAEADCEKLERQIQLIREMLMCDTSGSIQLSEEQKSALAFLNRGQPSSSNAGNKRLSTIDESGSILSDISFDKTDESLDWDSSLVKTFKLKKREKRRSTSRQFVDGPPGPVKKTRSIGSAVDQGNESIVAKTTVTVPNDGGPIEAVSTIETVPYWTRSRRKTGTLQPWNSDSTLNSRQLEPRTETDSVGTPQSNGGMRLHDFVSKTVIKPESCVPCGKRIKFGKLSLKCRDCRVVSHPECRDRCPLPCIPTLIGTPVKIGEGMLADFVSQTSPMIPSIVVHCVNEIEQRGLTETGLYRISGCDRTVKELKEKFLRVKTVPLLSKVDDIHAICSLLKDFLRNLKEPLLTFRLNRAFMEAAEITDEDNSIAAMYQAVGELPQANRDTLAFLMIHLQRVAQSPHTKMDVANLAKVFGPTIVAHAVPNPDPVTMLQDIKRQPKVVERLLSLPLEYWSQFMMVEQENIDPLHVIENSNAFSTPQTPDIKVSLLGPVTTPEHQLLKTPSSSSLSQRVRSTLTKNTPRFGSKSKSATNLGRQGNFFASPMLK

[7] = molecular target: Induced myeloid leukemia cell differentiation protein Mcl-1 (Homo sapiens, UniProt Q07820)
[8] = molecular target: T6, Hexokinase HKDC1 (Homo sapiens, UniProt Q2TB90); assay: inhibition of HKDC1 glucose phosphorylation – biochemical, W721R variant, dose response (AID 504729)
T6 sequence (Q2TB90 whole entry): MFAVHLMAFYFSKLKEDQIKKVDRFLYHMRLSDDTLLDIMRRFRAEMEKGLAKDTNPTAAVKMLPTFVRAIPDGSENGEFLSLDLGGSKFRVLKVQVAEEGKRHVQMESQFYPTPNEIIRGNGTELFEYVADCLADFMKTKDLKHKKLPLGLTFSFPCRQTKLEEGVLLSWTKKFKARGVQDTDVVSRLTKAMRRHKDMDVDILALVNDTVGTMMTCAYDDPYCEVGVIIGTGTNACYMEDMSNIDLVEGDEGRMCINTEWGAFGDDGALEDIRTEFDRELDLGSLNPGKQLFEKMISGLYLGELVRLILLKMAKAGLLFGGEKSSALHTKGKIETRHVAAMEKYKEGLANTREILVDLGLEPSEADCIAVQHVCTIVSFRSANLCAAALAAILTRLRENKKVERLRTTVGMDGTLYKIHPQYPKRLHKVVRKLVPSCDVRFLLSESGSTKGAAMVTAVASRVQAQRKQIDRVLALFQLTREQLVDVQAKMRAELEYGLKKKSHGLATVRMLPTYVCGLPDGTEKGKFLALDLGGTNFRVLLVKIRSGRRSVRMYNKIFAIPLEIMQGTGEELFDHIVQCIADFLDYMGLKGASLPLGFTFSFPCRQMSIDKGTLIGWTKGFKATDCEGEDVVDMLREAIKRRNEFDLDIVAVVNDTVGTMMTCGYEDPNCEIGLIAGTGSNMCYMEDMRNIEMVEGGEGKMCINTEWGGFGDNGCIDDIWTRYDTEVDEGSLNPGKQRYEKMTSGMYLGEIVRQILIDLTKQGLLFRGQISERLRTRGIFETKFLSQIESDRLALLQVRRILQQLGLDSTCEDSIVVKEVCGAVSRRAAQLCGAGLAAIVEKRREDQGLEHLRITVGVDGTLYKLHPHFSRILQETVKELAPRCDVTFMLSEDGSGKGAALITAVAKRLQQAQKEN

[9] = molecular target: Genome polyprotein (dengue virus type 2, UniProt P29990); assay: flavivirus cap methylation enzyme inhibition – biochemical, confirmation dose response, primary screen (AID 588689)
[10] = viability loss in THP-1 monocytes – THP-1 cells, cytotoxicity control for Vif-APOBEC3G degradation inhibitor project, dose response (AID 1117359); conditions: THP-1

Chain of Genome polyprotein (P29990 2492-3391 limits assumed): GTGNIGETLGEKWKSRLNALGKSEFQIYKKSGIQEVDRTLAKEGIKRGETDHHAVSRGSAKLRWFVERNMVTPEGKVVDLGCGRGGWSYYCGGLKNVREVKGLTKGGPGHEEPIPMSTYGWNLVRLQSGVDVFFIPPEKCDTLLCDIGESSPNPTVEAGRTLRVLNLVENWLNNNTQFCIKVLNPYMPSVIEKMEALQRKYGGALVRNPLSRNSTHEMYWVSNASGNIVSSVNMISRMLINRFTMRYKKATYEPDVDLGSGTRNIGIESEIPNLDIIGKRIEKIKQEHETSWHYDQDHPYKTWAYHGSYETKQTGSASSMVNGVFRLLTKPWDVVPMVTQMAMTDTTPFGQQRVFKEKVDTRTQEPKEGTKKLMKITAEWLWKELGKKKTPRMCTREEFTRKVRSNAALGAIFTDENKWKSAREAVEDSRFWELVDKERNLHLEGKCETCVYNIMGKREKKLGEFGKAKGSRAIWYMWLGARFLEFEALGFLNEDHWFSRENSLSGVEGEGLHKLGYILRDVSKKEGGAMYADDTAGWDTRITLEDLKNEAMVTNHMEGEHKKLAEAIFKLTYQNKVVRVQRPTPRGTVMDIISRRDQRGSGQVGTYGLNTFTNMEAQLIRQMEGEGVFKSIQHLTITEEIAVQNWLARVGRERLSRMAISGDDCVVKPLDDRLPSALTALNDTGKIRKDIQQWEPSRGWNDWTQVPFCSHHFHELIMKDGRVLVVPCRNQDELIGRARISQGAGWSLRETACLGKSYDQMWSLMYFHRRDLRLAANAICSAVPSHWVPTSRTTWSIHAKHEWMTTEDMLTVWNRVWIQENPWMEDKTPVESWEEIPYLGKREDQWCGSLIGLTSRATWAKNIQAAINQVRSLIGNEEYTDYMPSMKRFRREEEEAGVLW
Chain of Induced myeloid leukemia cell differentiation protein Mcl-1 (Q07820 whole entry): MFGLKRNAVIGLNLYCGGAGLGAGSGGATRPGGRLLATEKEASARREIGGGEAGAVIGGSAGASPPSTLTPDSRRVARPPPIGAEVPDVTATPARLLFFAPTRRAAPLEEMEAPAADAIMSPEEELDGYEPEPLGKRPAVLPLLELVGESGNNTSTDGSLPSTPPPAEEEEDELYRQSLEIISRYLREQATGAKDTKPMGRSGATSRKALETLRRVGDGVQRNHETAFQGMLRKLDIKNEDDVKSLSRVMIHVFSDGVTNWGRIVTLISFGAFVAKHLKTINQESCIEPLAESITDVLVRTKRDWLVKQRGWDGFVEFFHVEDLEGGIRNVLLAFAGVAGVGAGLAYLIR

| SMILES | IC50 [1] | IC50 [2] | IC50 [3] | IC50 [4] | CC50 [5] | IC50 [6] | IC50 [7] | IC50 [8] | IC50 [9] | CC50 [10] |
| --- | --- | --- | --- | --- | --- | --- | --- | --- | --- | --- |
| CCCC(=O)Nc1ccc(C(=O)N/N=C/c2c(C)[nH]c3ccccc23)cc1 | > 99 µM (inactive) | > 99 µM (inactive) | > 99 µM (inactive) | > 99 µM (inactive) |  |  |  |  |  |  |
| Cc1cc(O)ccc1/N=C/c1c(C(F)(F)F)n[nH]c1O |  |  |  |  | > 40 µM (active) | 30.2 µM (active) |  |  |  |  |
| COCc1c(Br)c(C)nc(OCC(=O)N/N=C/c2c[nH]c3ccccc23)c1C#N | > 99 µM (inactive) | > 99 µM (inactive) | > 99 µM (inactive) | > 99 µM (inactive) |  |  |  |  |  |  |
| Cc1ccccc1NC(=O)CCC(=O)N/N=C/c1c[nH]c2ccccc12 | > 99 µM (inactive) | > 99 µM (inactive) | > 99 µM (inactive) | > 99 µM (inactive) |  |  |  |  |  |  |
| COc1ccc2[nH]c3c4c(ccc3c2c1)C(=O)C=CC4=O |  |  |  |  | 17.9 µM (active) |  | 0.919 µM (active) | 19.1 µM (active) | > 100 µM (active) | 3.94 µM (active) |
